The target in the assay is Dual specificity tyrosine-phosphorylation-regulated kinase 4 (Homo sapiens) (UniProt Q9NR20). The assay can be described thus: inhibition of human DYRK4 phosphotransferase activity – biochemical, Z'-LYTE, FRET, protease-coupled, direct format, dose response (AID 1671209). The note with it: recombinant DYRK4.

This passage reports IC50 results from PubChem BioAssay AID1671209.

Molecules are shown by their SMILES.

Dual specificity tyrosine-phosphorylation-regulated kinase 4 (Homo sapiens), sequence (Q9NR20 whole entry, looked up): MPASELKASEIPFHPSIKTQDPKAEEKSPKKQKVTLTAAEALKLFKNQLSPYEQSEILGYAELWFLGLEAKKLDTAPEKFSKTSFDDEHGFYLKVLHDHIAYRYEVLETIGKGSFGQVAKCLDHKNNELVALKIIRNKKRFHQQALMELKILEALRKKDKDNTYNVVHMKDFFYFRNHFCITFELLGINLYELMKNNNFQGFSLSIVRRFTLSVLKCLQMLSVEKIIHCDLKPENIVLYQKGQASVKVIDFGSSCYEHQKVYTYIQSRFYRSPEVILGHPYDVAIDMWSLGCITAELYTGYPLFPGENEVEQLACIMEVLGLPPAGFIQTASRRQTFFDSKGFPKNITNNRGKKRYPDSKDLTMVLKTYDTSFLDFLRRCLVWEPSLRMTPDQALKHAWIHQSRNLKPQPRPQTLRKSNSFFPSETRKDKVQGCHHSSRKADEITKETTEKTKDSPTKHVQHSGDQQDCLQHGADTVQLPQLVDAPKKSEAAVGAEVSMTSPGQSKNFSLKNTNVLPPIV

As for `Brc1c(Br)c(Br)c2n[nH]nc2c1Br`, the IC50 – broadly, the midpoint of a concentration-inhibition curve – was 12.9 µM.
